From patent publication US9499484B2, “Indole, indoline derivatives, compositions comprising them and uses thereof” (priority 2012, dated 2016)
Structures can show the parent of a compound that is named as a salt. Where two headings read alike, the source gives them in different places.

Columns and labels:
conversion of MCI to AD = details: chronic treatment; cited from earlier work
[1] = system: ChE (AChE, BuChE) in plasma, muscle, spleen, brain; details: for ChE inhibition in plasma, muscle, and spleen: after ip and or oral administration in mice
Description: E. Acetylcholinesterase (AChE) and Butylcholinesterase (BuChE) Inhibition Ex Vivo
Compounds of the invention or saline were administrated by intraperitoneal (ip) injection or gavage to groups of 6-7 male ICR or Balb C mice (5-6 weeks of age). The mice were sacrificed 15, 30, 60 or 120 min after drug administration and the brain (minus cerebellum), spleen, and muscle were rapidly removed, weighed and put on ice. Blood was also collected in heparinised tubes, centrifuged at 14000 rpm at room temperature for 4 mM to provide plasma. Phosphate buffer pH 7 was added to each tissue to produce concentrations of 1 mg/mL for brain and spleen and 8 mg/mL for muscle. The tissues were homogenised in cold phosphate buffer pH 7 containing 0.1% Triton and centrifuged at 14000 rpm. Aliquots of plasma and the supernatant of all tissues were incubated with AcTh or BuTh and DTNB in phosphate buffer pH 7 and the rate of development of the yellow colour was measured as described above. Enzyme activity was measured for each time and drug concentration and percent inhibition of the AChE or BuChE activity was calculated by comparison with that of control mice injected with saline. Results are represented as p moles acetylthiocholine or butythiocholine hydrolysed/min/gm tissue.

[2] = system: NO, BV2 mouse microglial cells; assay: NO reduction in LPS-stimulated BV2 microglia; assay type: cell-based; details: for Reduction in NO levels by at >20%, BV2 Microglia range: concentration range, None = no reduction up till 100 nM
Description: (§1) The BV2 mouse microglial cells were created by infecting primary mouse microglia with v-raf/v-myc oncogen-carrying retrovirus and donated by Dr. Sigal Fleisher—Berkovich (Ben-Gurion University of the Negev). The cells were cultured in RPMI 1640 containing 0.4 mM L-Glutamine, 10% FCS, 100 units/ml penicillin, 100 μg/ml streptomycin and maintained in a humidified incubator at 37° C. with 5% CO2. For measurement of the effect of compounds on the release of NO the cells were seeded in a density of 80,000 cells/ml and confluence of about 60%, and incubated with test compounds (in the absence of FCS) for […] All the medium was removed and fresh medium containing FCS and LPS (10 μg/ml) added and the cells maintained at 37° C. for 24 h. The release of NO into the medium was determined by measurement of nitrite levels using Griess reagent reaction. For measurement of protein levels of cytokines cells were seeded in a density of 80,000 and incubated with test compounds (in the absence of FCS) and then with LPS as described above. The medium was centrifuged and supernatants collected after 6 h for TNF-α (Biolegend) and after 20 h for IL-6 (Biolegend).

BuChE = target: T1, BuChE (UniProt P81908); assay type: biochemical, human or equine serum; details: read-out: IC50 BuChE 120 min; Table 3; 120 min incubation
T1 construct: 120 min incubation; BuChE IC50
Description: (§2) B. Measurement of Acetylcholinesterase (AChE) and Butylcholinesterase (BuChE) Inhibition In Vitro
(§3) The enzyme was incubated at 37° C. with 6-10 concentrations of the compounds tested and samples were collected at 15, 30, 60 and 120 min Aliquots were transferred to an Elisa multiscan microplate reader (Labsystems) at 15-60 sec time intervals for the determination of residual AChE activity, with Ascent PC software. […] The % inhibition of AChE by each concentration was calculated by comparison with the activity of the enzyme in the absence of drug. […] BuChE-inhibitory activity was determined as described above using BuChE (Sigma Israel) with butylthiocholine iodide (BuTh) 0.075M as a substrate.

Radical scavenging, Sin1 = assay type: biochemical; details: mean ± SD, three independent experiments
TNF-α, RAW 264.7 cells = assay: TNF-α reduction in LPS-stimulated RAW 264.7 macrophages; assay type: cell-based, mouse
[3] = Fall in body temperature in rats; assay type: in vivo, rat; details: ip injection of two doses
Description: F. Temperature Measurements in Rats
Monitoring body temperature at different times after drug administration enables one to assess in vivo both the extent of drug effect and its duration in the same group of rats. Test compounds or saline were administrated by ip injection or by gavage to female Wistar rats aged 3-4 months. Body temperature was measured rectally by means of a thermocouple probe, before and every 30 min after drug administration until this returned to pre-injection values. The change in body temperature induced by the drug was computed for each dose at each time point in comparison with the temperature prior to drug injection.

NO, RAW 264.7 cells = assay: NO reduction in LPS-stimulated RAW 264.7 macrophages; assay type: cell-based, mouse
[4] = system: TNF-α, BV2 mouse microglial cells; assay: TNF-α reduction in LPS-stimulated BV2 microglia; assay type: cell-based; details: for Reduction in TNF-α levels, BV2 Microglia range: concentration range, None = no reduction up till 100 nM
Description: as §1

[5] = Radical scavenging, glucose oxidase/luminol luminescence; assay type: biochemical; details: concentration reducing luminescence/radical by 50%; mean ± SD, three independent experiments
Description: A. Measurement of Radical Scavenging
A mixture comprising glucose oxidase (GO), luminol, sodium selenite [IV] ([…]) and cobalt [II] (Co^+2) all in Hank's Balance Salt Solution (HBSS) was used (Ginsburg et al, 2004). The production of H2O2 produces a burst of luminescence within 30-60 sec, which lasts for 7-10 min. The luminescence involves oxidation of SEL+5 to it SEL+6 and also the generation of oxidants, which are catalyzed by Co^+2. This method mimics infection and inflammation conditions in which there is an accumulation of several oxidant species. This method provides a source of several radicals. Reduction in luminescence by the compounds is due to their ability to sequester radicals and was measured after addition of several concentrations of each compound. The concentration of each compound that reduced the luminescence by 50% was calculated.

[6] = system: cytokine levels in spleen and brain; assay: Anti-inflammatory activity in LPS-injected mice, cytokine protein levels; assay type: in vivo, mouse; details: 8 h after ip LPS 10 mg/kg, two doses
Description: G. Evaluation of Anti-Inflammatory Activity in Mice
For measurement of cytokine protein levels, mice were treated with saline or LPS as described above and sacrificed 4 h or 8 h after drug administration, the spleen and rapidly brain removed. The brain was separated into fore, mid and hind sections (minus cerebellum) and frozen in liquid nitrogen and stored at −80° C. until use. […] The supernatant was rapidly frozen in liquid nitrogen and stored until use at −80° C. Cytokines were detected by using Elisa kits (Biolegend) and protein determination performed with Bradford reagent (Bio-RAD, 500-0006).

[7] = system: DNBS-induced colon inflammation; assay: DNBS-induced colitis in rats (model of Crohn's disease); assay type: in vivo, rat; details: rectal 1 mg/kg (2.5 μmoles/kg) prior to and after DNBS
Description: H. Measurement of Effect of Compounds of the Invention in a Model of Crohn's Disease in Rats
Inflammation in the colon was induced in male rats of the Sabra strain (250-300 g) by intra-colonic administration of 1 mL of dinitrobenzensulfonic acid (DNBS) (35 mg/mL in ethanol 25% v/v) under isoflurane anaesthesia. The novel drugs (827B or 680D) or saline was given rectally 1 h prior to DNBS at a dose of 1 mg/kg (2.5 μmoles/kg), and then twice daily at the same dose 12, 24, 36, 48, 60 and 72 h later. A group of control rats received saline rectally instead of DNBS and were pre-treated with saline instead of drug. The rats were anaesthetized by ip injection of a mixture of xylazine 3 mg, ketamine 85 mg, 1 mL/kg. The colon was exposed through a longitudinal abdominal incision. The area of ulceration was estimated. Segments of 10 cm of the colon were removed, cut open and rinsed with ice-cold saline. After cleaning with cold saline (0.9%) the wet weight of the colon was measured. Pieces of colon were analysed for activity of myeloperoxidase (MPO), a marker of neutrophil granulocyte infiltration into the inflamed colon tissue. One unit of MPO activity was defined as the amount of enzyme present that produced a change in absorbance of […] at 25° C. Results were quantified as U/g protein.

[8] = system: primary neurones in culture; details: Chyan et al., J. Biol. Chem. 1999; cited from earlier work
AChE = target: T2, AChE (UniProt P23795); assay type: biochemical, human or bovine erythrocytes; details: Table 3; 120 min incubation; read-out: IC50 AChE 120 min
T2 sequence (P23795 1-613): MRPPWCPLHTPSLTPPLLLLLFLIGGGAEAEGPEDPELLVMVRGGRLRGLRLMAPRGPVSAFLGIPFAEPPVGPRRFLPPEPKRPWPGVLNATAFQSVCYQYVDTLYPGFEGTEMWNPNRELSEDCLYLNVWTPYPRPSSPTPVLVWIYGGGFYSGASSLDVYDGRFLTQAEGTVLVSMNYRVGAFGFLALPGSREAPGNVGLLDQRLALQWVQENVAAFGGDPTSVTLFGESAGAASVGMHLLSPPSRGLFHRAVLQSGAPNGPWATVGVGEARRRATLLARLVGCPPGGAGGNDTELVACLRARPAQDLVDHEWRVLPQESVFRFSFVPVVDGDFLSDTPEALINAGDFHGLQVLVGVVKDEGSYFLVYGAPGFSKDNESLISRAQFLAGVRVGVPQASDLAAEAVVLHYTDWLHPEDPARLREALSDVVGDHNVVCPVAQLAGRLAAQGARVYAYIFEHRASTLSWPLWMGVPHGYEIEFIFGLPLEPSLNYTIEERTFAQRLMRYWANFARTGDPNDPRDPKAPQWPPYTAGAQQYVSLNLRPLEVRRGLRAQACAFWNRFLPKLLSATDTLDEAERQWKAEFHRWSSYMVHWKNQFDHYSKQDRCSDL
Description: as §2, §3

[9] = Mus musculus, RAW264.7, 6 h, read-out: Reduction in TNF-α levels, RAW Macrophages % peak reduction
[10] = Mus musculus, RAW264.7, 24 h, read-out: Reduction in NO levels, RAW Macrophages % peak reduction

Structure (SMILES)	ChE inhibition in plasma, muscle, and spleen [1]	Reduction in NO levels by at >20%, BV2 Microglia range [2]	IC50 (BuChE)	IC50 (Radical scavenging, Sin1)	Emax (NO, RAW 264.7 cells; [10])	Reduction in TNF-α levels, BV2 Microglia % peak reduction [4]	Reduction in TNF-α levels, BV2 Microglia range [4]	IC50 [5]	further results
COc1cc2c(cc1OC)C(=O)C(CC1CCN(Cc3ccccc3)CC1)C2 (centres unmarked) [donepezil]	–	–	–	–	–	–	–	–	proportion of MCI patients converting to AD (conversion of MCI to AD): did not reduce the proportion converting to AD
CCN(C)C(=O)Oc1cccc2c1CCN2 [AN-854, Indolin-4-yl ethyl(methyl)carbamate hydrochloride]	inhibited ChE	None	700 nM	570 ± 10 nM	45.2 ± 1.4%	8.4 ± 1.7%	100 nM	1380 ± 100 nM	inhibited ChE in the mouse brain ([1]; 50 μmoles/kg): 30%; Emax (TNF-α, RAW 264.7 cells; [9]): 41.1 ± 3.8%; fall in body temperature in rats (FIG. 4) [3]: fall in body temperature
COC(=O)CCC1CNc2cccc(O)c21 (centres unmarked) [AN-832, Methyl 3-(4-hydroxyindolin-3-yl)propanoate hydrochloride]	–	None	–	3540 ± 210 nM	–	38.2 ± 3.2%	10^−1-100 nM	670 ± 50 nM	inhibition of the level of TNF-α induced in RAW cells by LPS (FIG. 3) (TNF-α, RAW 264.7 cells): inhibition; Emax (TNF-α, RAW 264.7 cells; Mus musculus, RAW264.7, 6 h; read-out: Reduction in TNF-α levels, RAW Macrophages % peak reduction): 39.2 ± 2.6%; Emax (NO, RAW 264.7 cells; Mus musculus, RAW264.7, 24 h; read-out: Reduction in NO levels, RAW Macrophages % peak reduction): 46.1 ± 3%
CCN(C)C(=O)Oc1ccc2c(c1)NCC2CCC(=O)OC.CS(=O)(=O)O (centres unmarked) [AN-680D, Methyl 3-(6-((ethyl(methyl)carbamoyl)oxy)indolin-3-yl)propanoate methanesulfonate]	–	10^−3-100 nM	–	–	47.8 ± 1.8%	–	–	–	inhibition of ChE in mouse brain ([1]; 100 μmoles/kg): no significant inhibition; Reduction in NO levels, BV2 Microglia % peak reduction [2]: 37.1 ± 5.3%; reduction in cytokine levels in cerebral cortex (FIG. 6B) [6]: reduction; reduction in cytokine levels in spleen (FIG. 6A) [6]: reduction; reduced MPO activity [7]: 80%; reduced colon weight [7]: 30%; reduced the area of colonic ulceration [7]: 95%
O=C(O)CCc1c[nH]c2ccccc12 [IPA, 3-indole-propionic acid]	–	–	–	–	–	–	–	–	protection of primary neurones against oxidative damage induced by beta amyloid [8]: protects primary neurones in culture against oxidative damage induced by beta amyloid
CCN(C)C(=O)Oc1cccc2c1C(CCN)CN2 (centres unmarked) [AN-890, 3-(2-Aminoethyl)indolin-4-yl ethyl(methyl)carbamate dihydrochloride]	inhibited ChE	None	200 nM	2130 ± 180 nM	54.6 ± 2.3%	–	None	70 ± 10 nM	ChE inhibition in skeletal muscle ([1]; mice, 1 mg/kg): little or no effect; ChE inhibition in plasma and spleen ([1]; mice, 1 mg/kg, ip and oral, 30 to 120 min): inhibited ChE in plasma and spleen equally well after ip and oral administration; inhibition of the level of TNF-α induced in RAW cells by LPS (FIG. 3) (TNF-α, RAW 264.7 cells): inhibition; Emax (TNF-α, RAW 264.7 cells; [9]): 36.6 ± 4.1%
CCN(C)C(=O)Oc1cccc2c1C(CCC(=O)O)CN2 (centres unmarked) [AN-850, hydrochloride]	inhibited ChE	10^−2-100 nM	300 nM	–	–	30.5 ± 0.6%	10^−3-100 nM	1590 ± 390 nM	Reduction in NO levels, BV2 Microglia % peak reduction [2]: 37.6 ± 5.0%; IC50 (AChE): 19000 nM; Reduction in TNF-α levels, RAW Macrophages range (TNF-α, RAW 264.7 cells; concentration range; None = no reduction up till 100 nM): None
